In patent publication US10947242B2, “[1,2,4]triazolo[1,5and#8208;A]pyrimidine compounds as PDE2 inhibitors” (Janssen Pharmaceutica NV, priority 2016, dated 2021):
Where two headings read alike, the source gives them in different places.

Experiments:
Format in all cases: biochemical
[1] = target: T1, Human recombinant PDE10A (hPDE10A) (Homo sapiens, UniProt Q9Y233); assay: In vitro assay PDE10A, human clone (SPA, 3H-cAMP hydrolysis); settings: human clone (h), default; for Emax: read-out: hPDE10A2 Emax; for IC50: read-out: hPDE10A2 pIC50 (converted)
T1 construct: His tag (inferred from metal chelate purification); made in house; host or cells: Sf9 insect cells (baculovirus)
Protocol: Rat recombinant PDE10A (rPDE10A2) was expressed in Sf9 cells using a recombinant rPDE10A baculovirus construct. […] Tested compounds were dissolved and diluted in 100% DMSO to a concentration 100 fold of the final concentration in the assay. Human recombinant PDE10A ([…]) was expressed in Sf9 cells using a recombinant hPDE10A baculovirus that was made and amplified in house. […] Compound dilutions (0.4 μl) were added in 384 well plates to 20 μl of incubation buffer (50 mM Tris pH 7.8, 8.3 mM MgCl2, 1.7 mM EGTA). 10 μl of rPDE10A or hPDE10A enzyme in incubation buffer was added and the reaction was started by addition of 10 μl substrate to a final concentration of 60 nM cAMP and 0.008 μCi ^3H-cAMP. The reaction was incubated for 60 minutes at room temperature. […] After sedimentation of the beads during 30 minutes the radioactivity was measured in a Perkin Elmer Topcount scintillation counter and results were expressed as cpm. For blanc values the enzyme was omitted from the reaction and replaced by incubation buffer. Control values were obtained by addition of a final concentration of 1% DMSO instead of compound.

[2] = target: T2, Human recombinant PDE3A (hPDE3A) (Homo sapiens, UniProt Q14432); assay: In vitro assay PDE3A (SPA, 3H-cAMP hydrolysis); settings: for IC50: hPDE3B pIC50, read-out: pIC50 (converted); for Emax: read-out: hPDE3B Emax, read-out: Emax;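 on all read-outs here: the method names PDE3A and the table heading PDE3B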
T2 construct: purchased Scottish Biomedical; host or cells: Sf9 insect cells
Protocol: Human recombinant PDE3A (hPDE3A) was supplied as a partially purified insect cell lysate by Scottish Biomedical, it was cloned from human brain and expressed in Sf9 cells. Tested compounds were dissolved and diluted in 100% DMSO to a concentration 100 fold of the final concentration in the assay. Compound dilutions (0.4 μl) were added in 384 well plates to 20 μl of incubation buffer (50 mM Tris pH 7.8, 8.3 mM MgCl2, 1.7 mM EGTA). 10 μl of hPDE3A enzyme in incubation buffer was added and the reaction was started by addition of 10 μl substrate to a final concentration of 0.4 μM cAMP and 2.4 μCi/ml [^3H]-cAMP. The reaction was incubated for 60 min at room temperature. […] After sedimentation of the beads during 30 min the radioactivity was measured in a Perkin Elmer Topcount scintillation counter and results were expressed as cpm. For blanc values the enzyme was omitted from the reaction and replaced by incubation buffer. Control values were obtained by addition of a final concentration of 1% DMSO instead of compound.

[3] = target: T3, Human recombinant PDE2A (hPDE2A) (Homo sapiens, UniProt O00408); assay: In vitro assay PDE2A (SPA, 3H-cGMP hydrolysis); settings: for IC50: read-out: hPDE2A pIC50 (converted); for Emax: read-out: hPDE2A Emax
T3 construct: His tag (inferred from metal chelate purification); made in house; host or cells: Sf9 insect cells (baculovirus)

[4] = human recombinant PDE2A, 10 μM cGMP substrate

T3 sequence (O00408 whole entry): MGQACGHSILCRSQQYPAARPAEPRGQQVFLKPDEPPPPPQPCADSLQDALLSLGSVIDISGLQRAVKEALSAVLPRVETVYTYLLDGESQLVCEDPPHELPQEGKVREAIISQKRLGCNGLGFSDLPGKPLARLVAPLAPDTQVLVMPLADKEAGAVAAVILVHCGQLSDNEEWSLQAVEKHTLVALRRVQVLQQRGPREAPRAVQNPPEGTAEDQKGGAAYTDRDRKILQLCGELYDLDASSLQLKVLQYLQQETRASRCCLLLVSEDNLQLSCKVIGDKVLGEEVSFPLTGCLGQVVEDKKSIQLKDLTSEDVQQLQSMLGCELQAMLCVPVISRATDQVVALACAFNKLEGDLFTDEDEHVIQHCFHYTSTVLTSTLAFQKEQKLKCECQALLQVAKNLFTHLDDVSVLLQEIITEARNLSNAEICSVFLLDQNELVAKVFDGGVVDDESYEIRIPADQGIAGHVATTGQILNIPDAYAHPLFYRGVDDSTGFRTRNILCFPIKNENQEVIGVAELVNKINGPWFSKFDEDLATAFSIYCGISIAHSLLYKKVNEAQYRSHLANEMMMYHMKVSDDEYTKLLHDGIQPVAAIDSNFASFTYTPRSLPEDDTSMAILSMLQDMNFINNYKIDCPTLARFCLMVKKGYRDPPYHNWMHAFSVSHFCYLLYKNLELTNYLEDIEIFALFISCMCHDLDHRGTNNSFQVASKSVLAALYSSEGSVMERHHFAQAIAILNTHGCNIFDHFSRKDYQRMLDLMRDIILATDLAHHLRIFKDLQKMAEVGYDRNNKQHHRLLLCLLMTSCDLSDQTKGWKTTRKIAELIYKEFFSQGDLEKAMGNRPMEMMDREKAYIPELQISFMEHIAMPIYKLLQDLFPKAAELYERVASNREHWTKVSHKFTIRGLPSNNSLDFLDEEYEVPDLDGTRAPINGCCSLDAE
T1 sequence (Q9Y233 267-1055): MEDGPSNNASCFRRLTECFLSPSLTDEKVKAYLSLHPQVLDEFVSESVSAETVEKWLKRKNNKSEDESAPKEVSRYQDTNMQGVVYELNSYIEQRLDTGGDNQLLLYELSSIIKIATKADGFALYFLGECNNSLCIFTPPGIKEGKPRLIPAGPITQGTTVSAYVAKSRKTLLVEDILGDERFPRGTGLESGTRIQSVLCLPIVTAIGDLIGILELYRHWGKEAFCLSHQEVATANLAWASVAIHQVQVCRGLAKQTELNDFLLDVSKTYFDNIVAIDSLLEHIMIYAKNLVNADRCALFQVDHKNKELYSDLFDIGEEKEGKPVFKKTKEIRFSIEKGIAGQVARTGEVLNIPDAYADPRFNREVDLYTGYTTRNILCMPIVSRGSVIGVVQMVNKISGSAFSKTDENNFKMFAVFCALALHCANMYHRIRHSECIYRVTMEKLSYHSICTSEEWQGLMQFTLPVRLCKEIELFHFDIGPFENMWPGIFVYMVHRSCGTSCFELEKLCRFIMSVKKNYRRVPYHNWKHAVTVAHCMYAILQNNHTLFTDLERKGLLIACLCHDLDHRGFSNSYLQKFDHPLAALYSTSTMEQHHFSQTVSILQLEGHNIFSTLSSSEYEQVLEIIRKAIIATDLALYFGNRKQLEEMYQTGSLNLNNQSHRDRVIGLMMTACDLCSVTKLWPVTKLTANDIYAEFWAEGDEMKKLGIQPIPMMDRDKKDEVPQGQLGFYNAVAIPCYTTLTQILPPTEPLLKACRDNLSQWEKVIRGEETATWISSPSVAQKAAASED
T2 sequence (Q14432 whole entry): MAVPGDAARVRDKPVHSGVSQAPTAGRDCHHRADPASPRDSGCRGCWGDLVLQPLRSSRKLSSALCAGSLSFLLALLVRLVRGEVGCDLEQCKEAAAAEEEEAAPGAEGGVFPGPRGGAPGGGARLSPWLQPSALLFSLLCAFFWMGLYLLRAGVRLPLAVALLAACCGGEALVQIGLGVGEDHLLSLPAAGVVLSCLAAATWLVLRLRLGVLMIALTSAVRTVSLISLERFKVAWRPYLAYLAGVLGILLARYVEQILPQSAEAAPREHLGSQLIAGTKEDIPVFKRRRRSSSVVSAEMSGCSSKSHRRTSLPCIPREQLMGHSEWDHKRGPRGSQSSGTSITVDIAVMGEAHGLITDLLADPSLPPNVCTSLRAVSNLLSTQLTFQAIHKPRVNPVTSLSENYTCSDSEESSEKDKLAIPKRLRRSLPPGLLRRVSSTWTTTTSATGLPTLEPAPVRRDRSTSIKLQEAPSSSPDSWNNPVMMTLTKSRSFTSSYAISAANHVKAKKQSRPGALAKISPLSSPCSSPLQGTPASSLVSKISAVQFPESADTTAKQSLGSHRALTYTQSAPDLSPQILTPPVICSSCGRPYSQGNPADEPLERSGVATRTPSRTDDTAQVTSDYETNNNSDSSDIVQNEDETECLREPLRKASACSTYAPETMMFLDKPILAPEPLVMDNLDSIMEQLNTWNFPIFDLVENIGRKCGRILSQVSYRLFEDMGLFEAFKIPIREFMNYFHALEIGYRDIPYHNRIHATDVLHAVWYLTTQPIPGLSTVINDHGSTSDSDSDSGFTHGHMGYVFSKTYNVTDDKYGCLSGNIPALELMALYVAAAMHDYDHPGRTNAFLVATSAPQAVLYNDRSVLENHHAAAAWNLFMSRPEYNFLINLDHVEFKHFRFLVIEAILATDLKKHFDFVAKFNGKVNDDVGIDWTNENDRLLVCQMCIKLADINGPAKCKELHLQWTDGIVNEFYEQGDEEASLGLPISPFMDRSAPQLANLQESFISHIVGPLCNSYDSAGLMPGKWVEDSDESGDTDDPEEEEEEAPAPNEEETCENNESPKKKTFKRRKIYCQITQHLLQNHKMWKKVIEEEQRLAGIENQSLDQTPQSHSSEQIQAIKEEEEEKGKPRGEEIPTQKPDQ

Row | SMILES | hPDE10A2 Emax [1] | hPDE10A2 pIC50 [1] | hPDE3B Emax [2] | hPDE2A Emax [3] | hPDE2A pIC50 [3] | hPDE2A Emax ([3]; human recombinant PDE2A) | hPDE2A pIC50 [3, 4] | Emax [1] [%] | IC50 [1] [nM] | IC50 [2] [nM] | Emax [2] [%] | IC50 [3, 4] [nM] | Emax ([3]; human recombinant PDE2A) [%] | Emax [3] [%] | IC50 [3] [nM]
1 | Cc1cc(C(=O)N2CC[C@H](C)[C@@H](c3cc(C#N)nc4ncnn34)C2)cc(C)n1 [Compound 26b] | 95 | 6.63 | 41 | 98 | 8.17 | 98 | 8.17 |  |  |  |  |  |  |  | 
2 | C[C@H]1CCN(C(=O)c2ccc3ncsc3c2)C[C@]1(F)c1cc(C(F)F)nc2ncnn12 [Compound 34] |  |  |  |  |  |  |  | 28 | > 10000 | > 10000 | 31 | 1950 | 88 | 88 | 1950
3 | C[C@@H]1CCN(C(=O)c2ccnc(Cl)c2F)C[C@H]1c1cc(C(F)F)nc2ncnn12 [Compound 55] |  |  |  |  |  |  |  | 83 | 1780 | > 10000 | 41 | 12.6 | 101 | 101 | 12.6
4 | C[C@@H]1CCN(C(=O)c2ccnn2C)C[C@H]1c1cc(C(F)F)nc2ncnn12 [Compound 57] |  |  |  |  |  |  |  | 78 | 3160 | > 10000 | 21 | 27.5 | 100 | 100 | 27.5
5 | C[C@@H]1CCN(C(=O)c2cn(C)cn2)C[C@H]1c1cc(C(F)F)nc2ncnn12 [Compound 58] |  |  |  |  |  |  |  | 69 | 4470 | > 10000 | 18 | 24.5 | 99 | 99 | 24.5
6 | CC(C)c1n[nH]cc1C(=O)N1CC[C@@H](C)[C@H](c2cc(C(F)F)nc3ncnn23)C1 [Compound 61] |  |  |  |  |  |  |  | 92 | 457 | > 10000 | 45 | 4.37 | 101 | 101 | 4.37
7 | Cc1cc(C(=O)N2[C@H]3CC[C@@H]2[C@H](c2cc(C(F)F)nc4ncnn24)CC3)c(F)cn1 [Compound 62] |  |  |  |  |  |  |  | 36 | > 10000 | > 10000 | 8 |  |  | 77 | 3020
8 | C[C@@H]1CCN(C(=O)c2cccc3c2OC(F)(F)O3)C[C@H]1c1cc(C(F)F)nc2ncnn12 [Compound 63] |  |  |  |  |  |  |  | 89 | 871 | 6920 | 60 | 7.24 | 100 | 100 | 7.24
9 | Cc1cc(C(=O)N2CC[C@@H](C)[C@H](c3cc(C(F)F)nc4ncnn34)C2)c(C)s1 [Compound 65] |  |  |  |  |  |  |  | 95 | 251 | 6760 | 70 | 1.26 | 100 | 100 | 1.26
10 | C[C@@H]1CCN(C(=O)c2ccn(C)c2)C[C@H]1c1cc(C(F)F)nc2ncnn12 [Compound 67] |  |  |  |  |  |  |  | 94 | 288 | > 10000 | 49 | 2.57 | 99 | 99 | 2.57
11 | COc1c(C)cc(C(=O)N2CC[C@@H](C)[C@@](F)(c3cc(C(F)F)nc4ncnn34)C2)cc1C [Compound 75] |  |  |  |  |  |  |  | 27 | > 10000 | > 10000 | 22 | 2950 | 81 | 81 | 2950
12 | Cc1cc(C(=O)N2CC[C@@H](C)[C@@](F)(c3cc(C(F)F)nc4ncnn34)C2)cc(C)n1 [Compound 81] |  |  |  |  |  |  |  | 1 | > 10000 | > 10000 | 17 | 7080 | 59 | 59 | 7080
13 | Cc1cc(C(=O)N2[C@H]3CC[C@H](c4cc(C(F)F)nc5ncnn45)[C@@H]2CC3)c(F)cn1 [Compound 86] |  |  |  |  |  |  |  | 40 | > 10000 | > 10000 | 34 |  |  | 100 | 50.1
14 | C[C@@H]1CCN(C(=O)c2cocn2)C[C@H]1c1cc(C(F)F)nc2ncnn12 [Compound 87] |  |  |  |  |  |  |  | 69 | 4570 | > 10000 | 11 | 214 | 98 | 98 | 214
15 | C[C@@H]1CCN(C(=O)c2ccc3nc(N)sc3c2)C[C@H]1c1cc(C(F)F)nc2ncnn12 [Compound 88] |  |  |  |  |  |  |  | 99 | 3.98 | 389 | 97 | 0.209 | 101 | 101 | 0.209
16 | Cc1coc2ccc(C(=O)N3CC[C@@H](C)[C@H](c4cc(C(F)F)nc5ncnn45)C3)cc12 [Compound 92] |  |  |  |  |  |  |  | 98 | 24.5 | 1320 | 88 | 0.398 | 100 | 100 | 0.398
17 | C[C@@H]1CCN(C(=O)c2cc3ccc(C(F)(F)F)cc3[nH]2)C[C@H]1c1cc(C(F)F)nc2ncnn12 [Compound 94] |  |  |  |  |  |  |  | 97 | 11.7 | 105 | 99 | 0.501 | 101 | 101 | 0.501
18 | C[C@@H]1CCN(C(=O)c2cc(-c3ccco3)nn2C)C[C@H]1c1cc(C(F)F)nc2ncnn12 [Compound 98] |  |  |  |  |  |  |  | 98 | 39.8 | 603 | 94 | 0.603 | 100 | 100 | 0.603
19 | Cc1csc2ccc(C(=O)N3CC[C@@H](C)[C@H](c4cc(C(F)F)nc5ncnn45)C3)nc12 [Compound 100] |  |  |  |  |  |  |  | 100 | 16.2 | 269 | 99 | 0.661 | 101 | 101 | 0.661
20 | C[C@@H]1CCN(C(=O)c2ccc3ncoc3c2)C[C@H]1c1cc(C(F)F)nc2ncnn12 [Compound 104] |  |  |  |  |  |  |  | 98 | 74.1 | 513 | 92 | 0.813 | 100 | 100 | 0.813
21 | COc1cccc2cc(C(=O)N3CC[C@@H](C)[C@H](c4cc(C(F)F)nc5ncnn45)C3)oc12 [Compound 105] |  |  |  |  |  |  |  | 101 | 29.5 | 1350 | 90 | 0.871 | 101 | 101 | 0.871
22 | C[C@@H]1CCN(C(=O)c2c[nH]c3ccc(F)cc23)C[C@H]1c1cc(C(F)F)nc2ncnn12 [Compound 112] |  |  |  |  |  |  |  | 99 | 47.9 | 1780 | 84 | 1 | 101 | 101 | 1
23 | COc1cc(C(=O)N2CC[C@@H](C)[C@H](c3cc(C(F)F)nc4ncnn34)C2)cc(C2CC2)n1 [Compound 113] |  |  |  |  |  |  |  | 99 | 38 | 1120 | 88 | 1 | 99 | 99 | 1
24 | C[C@@H]1CCN(C(=O)c2cc3ccccc3n2C)C[C@H]1c1cc(C(F)F)nc2ncnn12 [Compound 114] |  |  |  |  |  |  |  | 101 | 45.7 | 89.1 | 98 | 1.05 | 100 | 100 | 1.05
25 | Cc1c(C(=O)N2CC[C@@H](C)[C@H](c3cc(C(F)F)nc4ncnn34)C2)sc2ccccc12 [Compound 119] |  |  |  |  |  |  |  | 99 | 77.6 | 61.7 | 101 | 1.74 | 100 | 100 | 1.74
26 | COc1c(F)cc(C(=O)N2CC[C@@H](C)[C@H](c3cc(C(F)F)nc4ncnn34)C2)cc1F [Compound 128] |  |  |  |  |  |  |  | 98 | 155 | 933 | 90 | 2.29 | 100 | 100 | 2.29
